# In US8629276B2, “Inhibitors of human immunodeficiency virus replication” (priority 2012, dated 2014):
# System: recombinant NL-Rluc virus
# Test: Inhibition of HIV replication (NL-RLuc virus, luciferase readout in MT-2 cells)
# Type: cell-based
# Conditions: Human immunodeficiency virus 1, MT2, 120 h
row,Structure (SMILES),EC50 [nM]
1,"Cc1ccc(-c2c3c(nc(C)c2[C@H](OC(C)(C)C)C(=O)O)CCN(Cc2ccc(Cl)cc2)C3)cc1 [Example 41, (S)-2-(tert-Butoxy)-2-(6-(4-chlorobenzyl)-2-methyl-4-(p-tolyl)-5,6,7,8-tetrahydro-1,6-naphthyridin-3-yl)acetic acid]",150
2,"CC(C)c1nc2c(c(-c3ccc(F)cc3)c1C(OC(C)(C)C)C(=O)O)CN(c1ccccc1)CC2(C)C (centres unmarked) [Example 15, 2-tert-Butoxy-2-(4-(4-fluorophenyl)-2-isopropyl-8,8-dimethyl-6-phenyl-5,6,7,8-tetrahydro-1,6-naphthyridin-3-yl)acetic acid]",2090
3,"Cc1ccc(-c2c3c(nc(C)c2C(OC(C)(C)C)C(=O)O)CCN(CCc2ccccc2)C3)cc1 (centres unmarked) [Example 24, 2-(tert-Butoxy)-2-(2-methyl-6-phenethyl-4-(p-tolyl)-5,6,7,8-tetrahydro-1,6-naphthyridin-3-yl)acetic acid]",240
4,"Cc1ccc(-c2c3c(nc(C)c2C(OC(C)(C)C)C(=O)O)CCN(CCCc2ccccc2)C3)cc1 (centres unmarked) [Example 29, 2-(tert-Butoxy)-2-(2-methyl-6-(3-phenylpropyl)-4-(p-tolyl)-5,6,7,8-tetrahydro-1,6-naphthyridin-3-yl)acetic acid]",10
5,"CC(=O)N1CCc2nc(C)c(C(OC(C)(C)C)C(=O)O)c(-c3ccc(C)cc3)c2C1 (centres unmarked) [Example 25, 2-(6-Acetyl-2-methyl-4-(p-tolyl)-5,6,7,8-tetrahydro-1,6-naphthyridin-3-yl)-2-(tert-butoxy)acetic acid]",1920
6,"CC(C)c1nc2c(c(-c3ccc(F)cc3)c1C(OC(C)(C)C)C(=O)O)CN(C(=O)Cc1ccc(OCc3ccccc3)cc1)CC2(C)C (centres unmarked) [Example 5, 2-(6-(2-(4-(Benzyloxy)phenyl)acetyl)-4-(4-fluorophenyl)-2-isopropyl-8,8-dimethyl-5,6,7,8-tetrahydro-1,6-naphthyridin-3-yl)-2-tert-butoxyacetic acid]",5130
7,"Cc1nc2c(c(-c3cc(F)c4c(c3C)CCCO4)c1[C@H](OC(C)(C)C)C(=O)O)CN(CCCc1cccc(F)c1)CC2 (atropisomer, axis not shown) [Example 49, (S)-2-(tert-Butoxy)-2-((R)-4-(8-fluoro-5-methylchroman-6-yl)-6-(3-(3-fluorophenyl)propyl)-2-methyl-5,6,7,8-tetrahydro-1,6-naphthyridin-3-yl)acetic acid]",4
8,"CC(C)c1nc2c(c(-c3ccc(F)cc3)c1C(OC(C)(C)C)C(=O)O)CN(C(=O)CCc1ccccc1)CC2(C)C (centres unmarked) [Example 12, 2-tert-Butoxy-2-(4-(4-fluorophenyl)-2-isopropyl-8,8-dimethyl-6-(3-phenylpropanoyl)-5,6,7,8-tetrahydro-1,6-naphthyridin-3-yl)acetic acid]",7130
9,"Cc1ccc(-c2c3c(nc(C)c2C(OC(C)(C)C)C(=O)O)CCNC3)cc1 (centres unmarked) [Example 20, 2-(tert-Butoxy)-2-(2-methyl-4-(p-tolyl)-5,6,7,8-tetrahydro-1,6-naphthyridin-3-yl)acetic acid]",13500
10,"Cc1nc2c(c(-c3cc(F)c4c(c3C)CCCO4)c1[C@H](OC(C)(C)C)C(=O)O)CN(CCCc1ccccc1)CC2(C)C [Example 40, (2S)-2-(tert-Butoxy)-2-(4-(8-fluoro-5-methylchroman-6-yl)-2,8,8-trimethyl-6-(3-phenylpropyl)-5,6,7,8-tetrahydro-1,6-naphthyridin-3-yl)acetic acid]",2
11,"Cc1nc2c(c(-c3ccc(Cl)cc3)c1[C@H](OC(C)(C)C)C(=O)O)CN(C(=O)OCc1ccccc1)CC2 [Example 38, (S)-2-(6-((Benzyloxy)carbonyl)-4-(4-chlorophenyl)-2-methyl-5,6,7,8-tetrahydro-1,6-naphthyridin-3-yl)-2-(tert-butoxy)acetic acid]",543
12,"CC(C)c1nc2c(c(-c3ccc(F)cc3)c1C(OC(C)(C)C)C(=O)O)CN(C(=O)[C@@H]1C[C@H]1c1ccccc1)CC2(C)C (stereo partly drawn) [Example 8, 2-tert-Butoxy-2-(4-(4-fluorophenyl)-2-isopropyl-8,8-dimethyl-6-((1R,2R)-2-phenylcyclopropanecarbonyl)-5,6,7,8-tetrahydro-1,6-naphthyridin-3-yl)acetic acid]",6720
13,"CC(C)c1nc2c(c(-c3ccc(F)cc3)c1C(OC(C)(C)C)C(=O)O)CN(C(=O)c1ccc(-c3ccccc3)cc1)CC2(C)C (centres unmarked) [Example 13, 2-(6-(Biphenylcarbonyl)-4-(4-fluorophenyl)-2-isopropyl-8,8-dimethyl-5,6,7,8-tetrahydro-1,6-naphthyridin-3-yl)-2-tert-butoxyacetic acid]",2010
14,"CC(=O)N1Cc2c(nc(C(C)C)c(C(OC(C)(C)C)C(=O)O)c2-c2ccc(F)cc2)C(C)(C)C1 (centres unmarked) [Example 2, 2-(6-Acetyl-4-(4-fluorophenyl)-2-isopropyl-8,8-dimethyl-5,6,7,8-tetrahydro-1,6-naphthyridin-3-yl)-2-tert-butoxyacetic acid]",10000
15,"Cc1ccc(-c2c3c(nc(C)c2[C@H](OC(C)(C)C)C(=O)O)CCN(CCc2c[nH]c4ccccc24)C3)cc1 [Example 46, (S)-2-(6-(2-(1H-Indol-3-yl)ethyl)-2-methyl-4-(p-tolyl)-5,6,7,8-tetrahydro-1,6-naphthyridin-3-yl)-2-(tert-butoxy)acetic acid]",139
16,"Cc1ccc(-c2c3c(nc(C)c2C(OC(C)(C)C)C(=O)O)CCN(C(=O)OCc2ccccc2)C3)cc1 (centres unmarked) [Example 19, 2-(6-((Benzyloxy)carbonyl)-2-methyl-4-(p-tolyl)-5,6,7,8-tetrahydro-1,6-naphthyridin-3-yl)-2-(tert-butoxy)acetic acid]",226
17,"Cc1ccc(-c2c3c(nc(C)c2C(OC(C)(C)C)C(=O)O)CCN(C)C3)cc1 (centres unmarked) [Example 23, 2-(tert-Butoxy)-2-(2,6-dimethyl-4-(p-tolyl)-5,6,7,8-tetrahydro-1,6-naphthyridin-3-yl)acetic acid]",2080
18,"Cc1ccc(S(=O)(=O)N[C@@H](Cc2ccccc2)C(=O)N2Cc3c(nc(C(C)C)c(C(OC(C)(C)C)C(=O)O)c3-c3ccc(F)cc3)C(C)(C)C2)cc1 (stereo in doubt) [Example 10, 2-tert-Butoxy-2-(4-(4-fluorophenyl)-2-isopropyl-8,8-dimethyl-6-(2-(4-methylphenylsulfonamido)-3-phenylpropanoyl)-5,6,7,8-tetrahydro-1,6-naphthyridin-3-yl)acetic acid]",777
19,"COC(=O)N1CCc2nc(C)c(C(OC(C)(C)C)C(=O)O)c(-c3ccc(C)cc3)c2C1 (centres unmarked) [Example 26, 2-(tert-Butoxy)-2-(6-(methoxycarbonyl)-2-methyl-4-(p-tolyl)-5,6,7,8-tetrahydro-1,6-naphthyridin-3-yl)acetic acid]",1640
20,"Cc1ccc(-c2c3c(nc(C)c2[C@H](OC(C)(C)C)C(=O)O)C(C)(C)CN(CCCc2ccccc2)C3)cc1 [Example 43, (S)-2-(tert-Butoxy)-2-(2,8,8-trimethyl-6-(3-phenylpropyl)-4-(p-tolyl)-5,6,7,8-tetrahydro-1,6-naphthyridin-3-yl)acetic acid]",29
21,"Cc1cccc(CCCN2CCc3nc(C)c([C@H](OC(C)(C)C)C(=O)O)c(-c4cc(F)c5c(c4C)CCCO5)c3C2)c1 (atropisomer, axis not shown) [Example 47, (2S)-2-(tert-Butoxy)-2-((R)-4-(8-fluoro-5-methylchroman-6-yl)-2-methyl-6-(3-(m-tolyl)propyl)-5,6,7,8-tetrahydro-1,6-naphthyridin-3-yl)acetic acid]",2
22,"CC(C)c1nc2c(c(-c3ccc(F)cc3)c1C(OC(C)(C)C)C(=O)O)CN(c1ccc(-c3ccccc3)cc1)CC2(C)C (centres unmarked) [Example 18, 2-(6-([1,1′-Biphenyl]-4-yl)-4-(4-fluorophenyl)-2-isopropyl-8,8-dimethyl-5,6,7,8-tetrahydro-1,6-naphthyridin-3-yl)-2-(tert-butoxy)acetic acid]",2020
23,"Cc1cc(CCCN2CCc3nc(C)c([C@H](OC(C)(C)C)C(=O)O)c(-c4cc(F)c5c(c4C)CCCO5)c3C2)ccc1F (atropisomer, axis not shown) [Example 52, (2S)-2-(tert-Butoxy)-2-(6-(3-(4-fluoro-3-methylphenyl)propyl)-(R)-4-(8-fluoro-5-methylchroman-6-yl)-2-methyl-5,6,7,8-tetrahydro-1,6-naphthyridin-3-yl)acetic acid]",2
24,"Cc1ccc(-c2c3c(nc(C)c2C(OC(C)(C)C)C(=O)O)CCN(C(=O)[C@H](Cc2ccccc2)NS(=O)(=O)c2ccc(C)cc2)C3)cc1 (stereo in doubt) [Example 32, 2-(tert-Butoxy)-2-(2-methyl-6-(2-(4-methylphenylsulfonamido)-3-phenylpropanoyl)-4-(p-tolyl)-5,6,7,8-tetrahydro-1,6-naphthyridin-3-yl)acetic acid]",2300
25,"Cc1onc(-c2ccccc2)c1C(=O)N1Cc2c(nc(C(C)C)c(C(OC(C)(C)C)C(=O)O)c2-c2ccc(F)cc2)C(C)(C)C1 (centres unmarked) [Example 14, 2-tert-Butoxy-2-(4-(4-fluorophenyl)-2-isopropyl-8,8-dimethyl-6-(5-methyl-3-phenylisoxazole-4-carbonyl)-5,6,7,8-tetrahydro-1,6-naphthyridin-3-yl)acetic acid]",10200
26,"Cc1nc2c(c(-c3cc(F)c4c(c3C)CCCO4)c1[C@H](OC(C)(C)C)C(=O)O)CN(CCCc1cccc(C(F)(F)F)c1)CC2 (atropisomer, axis not shown) [Example 53]",2
27,"Cc1ccc(-c2c3c(nc(C)c2[C@H](OC(C)(C)C)C(=O)O)CCN(Cc2cccc(Cl)c2)C3)cc1 [Example 39, (S)-2-(tert-Butoxy)-2-(6-(3-chlorobenzyl)-2-methyl-4-(p-tolyl)-5,6,7,8-tetrahydro-1,6-naphthyridin-3-yl)acetic acid]",137
28,"CC(C)c1nc2c(c(-c3ccc(F)cc3)c1C(OC(C)(C)C)C(=O)O)CN(C(=O)Cc1ccc(F)cc1)CC2(C)C (centres unmarked) [Example 6, 2-tert-Butoxy-2-(4-(4-fluorophenyl)-6-(2-(4-fluorophenyl)acetyl)-2-isopropyl-8,8-dimethyl-5,6,7,8-tetrahydro-1,6-naphthyridin-3-yl)acetic acid]",185
29,"CC(C)c1nc2c(c(-c3ccc(F)cc3)c1C(OC(C)(C)C)C(=O)O)CN(C(=O)C(=O)c1c[nH]c3ccccc13)CC2(C)C (centres unmarked) [Example 11, 2-(6-(2-(1H-Indol-3-yl)-2-oxoacetyl)-4-(4-fluorophenyl)-2-isopropyl-8,8-dimethyl-5,6,7,8-tetrahydro-1,6-naphthyridin-3-yl)-2-tert-butoxyacetic acid]",4120
